Data as given in patent publication US9701664B2, “Fused 1,4-dihydrodioxin derivatives as inhibitors of heat shock transcription factor 1” (Cancer Research Technology Limited, priority 2013, dated 2017).

Experiments:
U2OS cells = test: Titre Blue cell viability assay, U2OS cells; format: cell-based; conditions: Homo sapiens, U2OS
HSP72 in U2OS cells = test: Cell-based ELISA (Cellisa) assay, U2OS cells: inhibition of 17-AAG-induced HSP72; conditions: Homo sapiens; U2OS cells (Examples 1-168)

Q: How did the IC50 (U2OS cells) turn out when `CNCCCOc1ccc2cc(C(=O)Nc3cc(NC(=O)c4ccc5c(c4)OCCO5)ccc3C)ccc2n1` [Example 76, N-(5-(2,3-dihydrobenzo[b][1,4]dioxine-6-carboxamido)-2-methylphenyl)-2-(3-(methylamino)propoxy)quinoline-6-carboxamide] was run?
A: The IC50 was 10 nM.

Q: And the IC50 (HSP72 in U2OS cells)?
A: Its IC50 is 21 nM.

Q: What does the source list for `CCC(=O)N(C)Cc1ccc2cc(C(=O)Nc3cc(NC(=O)c4ccc5c(c4)OCCO5)ccc3C)ccc2n1` [Example 78, N-(5-(2,3-dihydrobenzo[b][1,4]dioxine-6-carboxamido)-2-methylphenyl)-2-((N-methylpropionamido)methyl)quinoline-6-carboxamide]?
A: IC50 (U2OS cells): 91 nM; IC50 (HSP72 in U2OS cells): 45 nM

Q: What does the source list for `CNc1ccc2cc(C(=O)Nc3cc(NC(=O)c4ccc5c(c4)OCCO5)ccc3C)ccc2n1` [Example 79, N-(5-(2,3-dihydrobenzo[b][1,4]dioxine-6-carboxamido)-2-methylphenyl)-2-(methylamino)quinoline-6-carboxamide]?
A: IC50 (U2OS cells): 54 nM; IC50 (HSP72 in U2OS cells): 70 nM

Q: Which results are given for `Cc1ccc(NC(=O)c2ccc3c(c2)OCCO3)cc1NC(=O)c1ccc2c(c1)CCN2` [Example 84, N-(5-(2,3-dihydrobenzo[b][1,4]dioxine-6-carboxamido)-2-methylphenyl)indoline-5-carboxamide]?
A: IC50 (U2OS cells): 95 nM; IC50 (HSP72 in U2OS cells): 184 nM

Q: With `Cc1ccc(NC(=O)c2ccc3c(c2)OCCO3)cc1NC(=O)c1ccc2c(c1)CCC(CN(C)C)N2` (centres unmarked) [Example 87, N-(5-(2,3-dihydrobenzo[b][1,4]dioxine-6-carboxamido)-2-methylphenyl)-2-((dimethylamino)methyl)-1,2,3,4-tetrahydroquinoline-6-carboxamide] as the compound, how does the IC50 (U2OS cells) read?
A: The IC50 was 260 nM.

Q: What about the IC50 (HSP72 in U2OS cells) of the same compound?
A: The IC50 was 608 nM.

Q: Which results are given for `Cc1ccc(NC(=O)c2ccc3c(c2)OCCO3)cc1NC(=O)c1ccc2nc(N)sc2c1` [Example 91, 2-amino-N-(5-(2,3-dihydrobenzo[b][1,4]dioxine-6-carboxamido)-2-methylphenyl)benzo[d]thiazole-6-carboxamide]?
A: IC50 (U2OS cells): 115 nM; IC50 (HSP72 in U2OS cells): 70 nM

Q: Which results are given for `Cc1ccc(NC(=O)c2ccc3c(c2)OCCO3)cc1NC(=O)c1cnc2[nH]cnc2c1` [Example 92, N-(5-(2,3-dihydrobenzo[b][1,4]dioxine-6-carboxamido)-2-methylphenyl)-3H-imidazo[4,5-b]pyridine-6-carboxamide]?
A: IC50 (U2OS cells): 3280 nM; IC50 (HSP72 in U2OS cells): 4410 nM

Q: Which IC50 (U2OS cells) does the source give for `Cc1ccc(NC(=O)c2ccc3c(c2)OCCO3)cc1NC(=O)c1ccc(O)cc1` [Example 93, N-(3-(4-hydroxybenzamido)-4-methylphenyl)-2,3-dihydrobenzo[b][1,4]dioxine-6-carboxamide] here?
A: The IC50 was 798 nM.

Q: And the IC50 (HSP72 in U2OS cells)?
A: Its IC50 is 2460 nM.

Q: For `COc1cc(C(=O)Nc2cc(NC(=O)c3ccc4c(c3)OCCO4)ccc2C)cc2sc(N)nc12` [Example 95, 2-amino-N-(5-(2,3-dihydrobenzo[b][1,4]dioxine-6-carboxamido)-2-methylphenyl)-4-methoxybenzo[d]thiazole-6-carboxamide], which IC50 (U2OS cells) is on record?
A: The IC50 was 156 nM.

Q: And the IC50 (HSP72 in U2OS cells)?
A: The IC50 was 89 nM.

Q: Which results are given for `Cc1ccc(NC(=O)c2ccc3c(c2)OCCO3)cc1NC(=O)c1ccnc(-n2cncn2)c1` [Example 96, N-(5-(2,3-dihydrobenzo[b][1,4]dioxine-6-carboxamido)-2-methylphenyl)-2-(1H-1,2,4-triazol-1-yl)isonicotinamide]?
A: IC50 (U2OS cells): 1350 nM; IC50 (HSP72 in U2OS cells): 4440 nM

Q: `Cc1ccc(NC(=O)c2ccc3c(c2)OCCO3)cc1NC(=O)c1ccc2[nH]ncc2c1` [Example 97, N-(5-(2,3-dihydrobenzo[b][1,4]dioxine-6-carboxamido)-2-methylphenyl)-1H-indazole-5-carboxamide] was tested. Which IC50 (U2OS cells) did it give?
A: The IC50 was 32 nM.

Q: And the IC50 (HSP72 in U2OS cells)?
A: Its IC50 is 59 nM.

Q: How did the IC50 (U2OS cells) turn out when `Cc1cc2cc(C(=O)Nc3cc(NC(=O)c4ccc5c(c4)OCCO5)ccc3C)cnc2[nH]1` [Example 99, N-(5-(2,3-dihydrobenzo[b][1,4]dioxine-6-carboxamido)-2-methylphenyl)-2-methyl-1H-pyrrolo[2,3-b]pyridine-5-carboxamide] was run?
A: Its IC50 is 62 nM.

Q: What about the IC50 (HSP72 in U2OS cells) of the same compound?
A: The IC50 was 42 nM.

Q: What does the source list for `Cc1ccc(NC(=O)c2ccc3c(c2)OCCO3)cc1NC(=O)c1cnc2[nH]ccc2c1` [Example 100, N-(5-(2,3-dihydrobenzo[b][1,4]dioxine-6-carboxamido)-2-methylphenyl)-1H-pyrrolo[2,3-b]pyridine-5-carboxamide]?
A: IC50 (U2OS cells): 54 nM; IC50 (HSP72 in U2OS cells): 43 nM

Q: `Cc1ccc(NC(=O)c2ccc3c(c2)OCCO3)cc1NC(=O)c1ccc(OCc2cscn2)cc1` [Example 101, N-(4-methyl-3-(4-(thiazol-4-ylmethoxy)benzamido)phenyl)-2,3-dihydrobenzo[b][1,4]dioxine-6-carboxamide] was tested. Which IC50 (U2OS cells) did it give?
A: The IC50 was 59 nM.

Q: And the IC50 (HSP72 in U2OS cells)?
A: The IC50 was 122 nM.

Q: For `Cc1ccc(NC(=O)c2ccc3c(c2)OCCO3)cc1NC(=O)c1ccc2c(c1)CCC(=O)N2` [Example 103, N-(5-(2,3-dihydrobenzo[b][1,4]dioxine-6-carboxamido)-2-methylphenyl)-2-oxo-1,2,3,4-tetrahydroquinoline-6-carboxamide], which IC50 (U2OS cells) is on record?
A: Its IC50 is 74 nM.

Q: What about the IC50 (HSP72 in U2OS cells) of the same compound?
A: Its IC50 is 60 nM.

Q: `Cc1ccc(NC(=O)c2ccc3c(c2)OCCO3)cc1NC(=O)c1ccc(-n2cccn2)cc1` [Example 107, N-(3-(4-(1H-pyrazol-1-yl)benzamido)-4-methylphenyl)-2,3-dihydrobenzo[b][1,4]dioxine-6-carboxamide] was tested. Which IC50 (U2OS cells) did it give?
A: The IC50 was 227 nM.

Q: And the IC50 (HSP72 in U2OS cells)?
A: Its IC50 is 295 nM.

Q: What does the source list for `Cc1cc(NCCN(C)C)c2cc(C(=O)Nc3cc(NC(=O)c4ccc5c(c4)OCCO5)ccc3C)ccc2n1` [Example 110, N-(5-(2,3-dihydrobenzo[b][1,4]dioxine-6-carboxamido)-2-methylphenyl)-4-(2-(dimethylamino)ethylamino)-2-methylquinoline-6-carboxamide]?
A: IC50 (U2OS cells): 168 nM; IC50 (HSP72 in U2OS cells): 410 nM

Q: Which IC50 (U2OS cells) does the source give for `Cc1ccc2cc(C(=O)Nc3cccc(NC(=O)c4ccc5c(c4)OCCO5)c3)ccc2n1` [Example 113, N-(3-(2,3-dihydrobenzo[b][1,4]dioxine-6-carboxamido)phenyl)-2-methylquinoline-6-carboxamide] here?
A: Its IC50 is 117 nM.

Q: What about the IC50 (HSP72 in U2OS cells) of the same compound?
A: Its IC50 is 160 nM.

Q: `Cc1ccc2cc(C(=O)Nc3cc(NC(=O)c4ccc5c(c4)OCCO5)ccc3C(F)(F)F)ccc2n1` [Example 129, N-(5-(2,3-dihydrobenzo[b][1,4]dioxine-6-carboxamido)-2-(trifluoromethyl)phenyl)-2-methylquinoline-6-carboxamide] was tested. Which IC50 (U2OS cells) did it give?
A: Its IC50 is 162 nM.

Q: And the IC50 (HSP72 in U2OS cells)?
A: Its IC50 is 344 nM.

Q: `Cc1ccc(NC(=O)c2ccc3c(c2)OCO3)cc1NC(=O)c1ccc2ncccc2c1` [Example 131, N-(5-(benzo[d][1,3]dioxole-5-carboxamido)-2-methylphenyl)quinoline-6-carboxamide] was tested. Which IC50 (U2OS cells) did it give?
A: Its IC50 is 74 nM.

Q: What about the IC50 (HSP72 in U2OS cells) of the same compound?
A: Its IC50 is 171 nM.

Q: With `CCc1ccc(NC(=O)c2ccc3c(c2)OCCO3)cc1NC(=O)c1ccc2ncccc2c1` [Example 133, N-(5-(2,3-dihydrobenzo[b][1,4]dioxine-6-carboxamido)-2-ethylphenyl)quinoline-6-carboxamide] as the compound, how does the IC50 (U2OS cells) read?
A: Its IC50 is 111 nM.

Q: What about the IC50 (HSP72 in U2OS cells) of the same compound?
A: Its IC50 is 127 nM.

Q: What does the source list for `Cc1ccc(NC(=O)c2cnc3c(c2)OCCO3)cc1NC(=O)c1ccc2nc(OCCN3CCCC3)ccc2c1` [Example 134, N-(4-methyl-3-(2-(2-(pyrrolidin-1-yl)ethoxy)quinoline-6-carboxamido)phenyl)-2,3-dihydro-[1,4]dioxino[2,3-b]pyridine-7-carboxamide]?
A: IC50 (U2OS cells): 49 nM; IC50 (HSP72 in U2OS cells): 51 nM

Q: Which results are given for `Cc1ccc2cc(C(=O)Nc3cc(NC(=O)c4cnc5c(c4)OCCO5)ccc3C)ccc2n1` [Example 135, N-(4-methyl-3-(2-methylquinoline-6-carboxamido)phenyl)-2,3-dihydro-[1,4]dioxino[2,3-b]pyridine-7-carboxamide]?
A: IC50 (U2OS cells): 29 nM; IC50 (HSP72 in U2OS cells): 27 nM

Q: Which IC50 (U2OS cells) does the source give for `Cc1ccc(NC(=O)c2ccc3c(c2)OCCO3)cc1NC(=O)c1cc(F)c2ncccc2c1` [Example 136, N-(5-(2,3-dihydrobenzo[b][1,4]dioxine-6-carboxamido)-2-methylphenyl)-8-fluoroquinoline-6-carboxamide] here?
A: The IC50 was 4 nM.

Q: What about the IC50 (HSP72 in U2OS cells) of the same compound?
A: Its IC50 is 14 nM.

Q: With `COCc1ccc2cc(C(=O)Nc3cc(NC(=O)c4ccc5c(c4)OCCO5)ccc3C)ccc2n1` [Example 137, N-(5-(2,3-dihydrobenzo[b][1,4]dioxine-6-carboxamido)-2-methylphenyl)-2-(methoxymethyl)quinoline-6-carboxamide] as the compound, how does the IC50 (U2OS cells) read?
A: The IC50 was 26 nM.

Q: What about the IC50 (HSP72 in U2OS cells) of the same compound?
A: Its IC50 is 15 nM.

Q: For `O=C(Nc1ccc(Br)c(NC(=O)c2ccc3ncccc3c2)c1)c1ccc2c(c1)OCCO2` [Example 138, N-(2-bromo-5-(2,3-dihydrobenzo[b][1,4]dioxine-6-carboxamido)phenyl)quinoline-6-carboxamide], which IC50 (U2OS cells) is on record?
A: Its IC50 is 10 nM.

Q: And the IC50 (HSP72 in U2OS cells)?
A: Its IC50 is 31 nM.

Q: With `O=C(Nc1ccc(Br)c(NC(=O)c2ccc3nc(OCCN4CCCC4)ccc3c2)c1)c1ccc2c(c1)OCCO2` [Example 139, N-(2-bromo-5-(2,3-dihydrobenzo[b][1,4]dioxine-6-carboxamido)phenyl)-2-(2-(pyrrolidin-1-yl)ethoxy)quinoline-6-carboxamide] as the compound, how does the IC50 (U2OS cells) read?
A: Its IC50 is 23 nM.

Q: What about the IC50 (HSP72 in U2OS cells) of the same compound?
A: Its IC50 is 20 nM.

Q: Which IC50 (U2OS cells) does the source give for `N#Cc1ccc(NC(=O)c2ccc3c(c2)OCCO3)cc1NC(=O)c1ccc2ncccc2c1` [Example 140, N-(2-cyano-5-(2,3-dihydrobenzo[b][1,4]dioxine-6-carboxamido)phenyl)quinoline-6-carboxamide] here?
A: The IC50 was 34 nM.

Q: And the IC50 (HSP72 in U2OS cells)?
A: The IC50 was 31 nM.

Q: Which IC50 (U2OS cells) does the source give for `Cc1ccc(NC(=O)c2ccc3c(c2)OCCO3)cc1NC(=O)c1cnc2c(c1)CCCC2` [Example 141, N-(5-(2,3-dihydrobenzo[b][1,4]dioxine-6-carboxamido)-2-methylphenyl)-5,6,7,8-tetrahydroquinoline-3-carboxamide] here?
A: Its IC50 is 44 nM.

Q: What about the IC50 (HSP72 in U2OS cells) of the same compound?
A: The IC50 was 32 nM.

Q: `Cc1ccc(NC(=O)c2ccc3c(c2)OCCO3)cc1NC(=O)c1ccc2c(c1)CCCN2C` [Example 143, N-(5-(2,3-dihydrobenzo[b][1,4]dioxine-6-carboxamido)-2-methylphenyl)-1-methyl-1,2,3,4-tetrahydroquinoline-6-carboxamide] was tested. Which IC50 (U2OS cells) did it give?
A: The IC50 was 26 nM.

Q: And the IC50 (HSP72 in U2OS cells)?
A: The IC50 was 55 nM.

Q: With `Cc1ccc(NC(=O)c2ccc3c(c2)OCCO3)cc1NC(=O)c1ccc2nc(CCN3CCOCC3)ccc2c1` [Example 144, N-(5-(2,3-dihydrobenzo[b][1,4]dioxine-6-carboxamido)-2-methylphenyl)-2-(2-morpholinoethyl)quinoline-6-carboxamide] as the compound, how does the IC50 (U2OS cells) read?
A: Its IC50 is 80 nM.

Q: What about the IC50 (HSP72 in U2OS cells) of the same compound?
A: The IC50 was 60 nM.
